Test results reported in PubChem BioAssay (NCI).
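The compound was tested at five concentrations on cells cultured in 96-well plates, with a 48-hour exposure period. TGI: concentration producing complete growth inhibition.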

Key:
Experiment in all cases: NCI-60 cell line screen, 48 h
786-0 renal = system: 786-0 renal
A549 NSCLC = system: A549 NSCLC
ACHN renal = system: ACHN renal
CCRF-CEM leukemia = system: CCRF-CEM leukemia
COLO 205 colon = system: COLO 205 colon
DLD-1 colon = system: DLD-1 colon
DMS 114 small cell lung = system: DMS 114 small cell lung
DMS 273 small cell lung = system: DMS 273 small cell lung
EKVX NSCLC = system: EKVX NSCLC
HCC-2998 colon = system: HCC-2998 colon
HCT-116 colon = system: HCT-116 colon
HCT-15 colon = system: HCT-15 colon
HL-60(TB) leukemia = system: HL-60(TB) leukemia
HOP-18 NSCLC = system: HOP-18 NSCLC
HOP-92 NSCLC = system: HOP-92 NSCLC
HT29 colon = system: HT29 colon
IGROV1 ovarian = system: IGROV1 ovarian
K-562 leukemia = system: K-562 leukemia
KM12 colon = system: KM12 colon
KM20L2 colon = system: KM20L2 colon
LOX IMVI melanoma = system: LOX IMVI melanoma
LXFL 529 NSCLC = system: LXFL 529 NSCLC
M14 melanoma = system: M14 melanoma
M19-MEL melanoma = system: M19-MEL melanoma
MALME-3M melanoma = system: MALME-3M melanoma
MOLT-4 leukemia = system: MOLT-4 leukemia
NCI-H226 lung = system: NCI-H226 lung
NCI-H23 lung = system: NCI-H23 lung
NCI-H460 lung = system: NCI-H460 lung
NCI-H522 lung = system: NCI-H522 lung
OVCAR-3 ovarian = system: OVCAR-3 ovarian
OVCAR-4 ovarian = system: OVCAR-4 ovarian
OVCAR-5 ovarian = system: OVCAR-5 ovarian
OVCAR-8 ovarian = system: OVCAR-8 ovarian
RPMI-8226 leukemia = system: RPMI-8226 leukemia
RXF 393 renal = system: RXF 393 renal
SF-268 CNS = system: SF-268 CNS
SF-295 CNS = system: SF-295 CNS
SF-539 CNS = system: SF-539 CNS
SK-MEL-2 melanoma = system: SK-MEL-2 melanoma
SK-MEL-28 melanoma = system: SK-MEL-28 melanoma
SK-MEL-5 melanoma = system: SK-MEL-5 melanoma
SK-OV-3 ovarian = system: SK-OV-3 ovarian
SN12C renal = system: SN12C renal
SNB-19 CNS = system: SNB-19 CNS
SNB-75 CNS = system: SNB-75 CNS
SNB-78 CNS = system: SNB-78 CNS
SW-620 colon = system: SW-620 colon
TK-10 renal = system: TK-10 renal
U251 CNS = system: U251 CNS
UACC-257 melanoma = system: UACC-257 melanoma
UACC-62 melanoma = system: UACC-62 melanoma
UO-31 renal = system: UO-31 renal
XF 498 CNS = system: XF 498 CNS
A498 renal = system: A498 renal
BT-549 breast = system: BT-549 breast
CAKI-1 renal = system: CAKI-1 renal
DU-145 prostate = system: DU-145 prostate
HOP-62 NSCLC = system: HOP-62 NSCLC
HS 578T breast = system: HS 578T breast
MCF7 breast = system: MCF7 breast
MDA-MB-231 breast = system: MDA-MB-231 breast
MDA-MB-435 = system: MDA-MB-435
MDA-N = system: MDA-N
NCI/ADR-RES ovarian = system: NCI/ADR-RES ovarian
PC-3 prostate = system: PC-3 prostate
T-47D breast = system: T-47D breast
SR leukemia = system: SR leukemia

COc1c(C)cc2c(C(C)C)c(O)c(O)c(C=O)c2c1O
TGI (786-0 renal): > 100 µM
TGI (A549 NSCLC): > 100 µM
TGI (ACHN renal): 93 µM
TGI (CCRF-CEM leukemia): > 100 µM
TGI (COLO 205 colon): 36.3 µM
TGI (DLD-1 colon): > 100 µM
TGI (DMS 114 small cell lung): 37.9 µM
TGI (DMS 273 small cell lung): 59.1 µM
TGI (EKVX NSCLC): 95.1 µM
TGI (HCC-2998 colon): > 100 µM
TGI (HCT-116 colon): 52 µM
TGI (HCT-15 colon): > 100 µM
TGI (HL-60(TB) leukemia): 58.3 µM
TGI (HOP-18 NSCLC): 71.7 µM
TGI (HOP-92 NSCLC): > 100 µM
TGI (HT29 colon): 47.1 µM
TGI (IGROV1 ovarian): > 100 µM
TGI (K-562 leukemia): 45.4 µM
TGI (KM12 colon): 56.1 µM
TGI (KM20L2 colon): 88.1 µM
TGI (LOX IMVI melanoma): 68.9 µM
TGI (LXFL 529 NSCLC): > 100 µM
TGI (M14 melanoma): 64.4 µM
TGI (M19-MEL melanoma): 81.8 µM
TGI (MALME-3M melanoma): 38.7 µM
TGI (MOLT-4 leukemia): > 100 µM
TGI (NCI-H226 lung): 57.2 µM
TGI (NCI-H23 lung): 47.8 µM
TGI (NCI-H460 lung): > 100 µM
TGI (NCI-H522 lung): 60.4 µM
TGI (OVCAR-3 ovarian): 49.5 µM
TGI (OVCAR-4 ovarian): 63.9 µM
TGI (OVCAR-5 ovarian): 86 µM
TGI (OVCAR-8 ovarian): 83.8 µM
TGI (RPMI-8226 leukemia): > 100 µM
TGI (RXF 393 renal): 55.2 µM
TGI (SF-268 CNS): > 100 µM
TGI (SF-295 CNS): 86 µM
TGI (SF-539 CNS): 37.6 µM
TGI (SK-MEL-2 melanoma): 37.1 µM
TGI (SK-MEL-28 melanoma): 75.1 µM
TGI (SK-MEL-5 melanoma): 33.1 µM
TGI (SK-OV-3 ovarian): > 100 µM
TGI (SN12C renal): 75.8 µM
TGI (SNB-19 CNS): > 100 µM
TGI (SNB-75 CNS): 90.2 µM
TGI (SNB-78 CNS): > 100 µM
TGI (SW-620 colon): > 100 µM
TGI (TK-10 renal): > 100 µM
TGI (U251 CNS): 57.9 µM
TGI (UACC-257 melanoma): 59.4 µM
TGI (UACC-62 melanoma): 47.5 µM
TGI (UO-31 renal): > 100 µM
TGI (XF 498 CNS): > 100 µM

O=C(Cc1ccccc1F)NC1=C(Cl)C(=O)c2ccccc2C1=O
TGI (786-0 renal): 9.68 µM
TGI (A498 renal): 33.4 µM
TGI (A549 NSCLC): 15.7 µM
TGI (ACHN renal): 2.02 µM
TGI (BT-549 breast): 7.26 µM
TGI (CAKI-1 renal): 9.42 µM
TGI (CCRF-CEM leukemia): 7.36 µM
TGI (COLO 205 colon): 6.9 µM
TGI (DMS 114 small cell lung): 0.543 µM
TGI (DMS 273 small cell lung): 11.5 µM
TGI (DU-145 prostate): 21.8 µM
TGI (EKVX NSCLC): 18 µM
TGI (HCC-2998 colon): 15.2 µM
TGI (HCT-116 colon): 5.12 µM
TGI (HCT-15 colon): 13.3 µM
TGI (HL-60(TB) leukemia): 0.8 µM
TGI (HOP-18 NSCLC): 3.32 µM
TGI (HOP-62 NSCLC): 24.2 µM
TGI (HOP-92 NSCLC): 2.49 µM
TGI (HS 578T breast): 23.8 µM
TGI (HT29 colon): 19.5 µM
TGI (IGROV1 ovarian): 9.25 µM
TGI (K-562 leukemia): > 41.8 µM
TGI (KM12 colon): 4.11 µM
TGI (KM20L2 colon): 29.8 µM
TGI (LOX IMVI melanoma): 5.99 µM
TGI (LXFL 529 NSCLC): 5.56 µM
TGI (M14 melanoma): 7.41 µM
TGI (M19-MEL melanoma): 12.4 µM
TGI (MALME-3M melanoma): 5 µM
TGI (MCF7 breast): 21.4 µM
TGI (MDA-MB-231 breast): 13.8 µM
TGI (MDA-MB-435): 10.4 µM
TGI (MDA-N): 11.8 µM
TGI (MOLT-4 leukemia): 6.47 µM
TGI (NCI-H226 lung): 6.7 µM
TGI (NCI-H23 lung): 3.87 µM
TGI (NCI-H460 lung): 21.7 µM
TGI (NCI-H522 lung): 0.565 µM
TGI (NCI/ADR-RES ovarian): 6.25 µM
TGI (OVCAR-3 ovarian): 2.9 µM
TGI (OVCAR-4 ovarian): 5.65 µM
TGI (OVCAR-5 ovarian): 21.2 µM
TGI (OVCAR-8 ovarian): 9.36 µM
TGI (PC-3 prostate): 11.9 µM
TGI (RPMI-8226 leukemia): 19.1 µM
TGI (RXF 393 renal): 0.816 µM
TGI (SF-268 CNS): 15.1 µM
TGI (SF-295 CNS): 11.8 µM
TGI (SF-539 CNS): 1.93 µM
TGI (SK-MEL-2 melanoma): 2.98 µM
TGI (SK-MEL-28 melanoma): 9.6 µM
TGI (SK-MEL-5 melanoma): 4.37 µM
TGI (SK-OV-3 ovarian): 13.7 µM
TGI (SN12C renal): 16.8 µM
TGI (SNB-19 CNS): 25.2 µM
TGI (SNB-75 CNS): 8.06 µM
TGI (SW-620 colon): 3.81 µM
TGI (T-47D breast): 5.8 µM
TGI (TK-10 renal): 5.29 µM
TGI (U251 CNS): 4.67 µM
TGI (UACC-257 melanoma): 4.32 µM
TGI (UACC-62 melanoma): 1.92 µM
TGI (UO-31 renal): 8.98 µM
TGI (XF 498 CNS): 1.68 µM

CC(=O)OCC1OC(n2ccc(=O)[nH]c2=O)C(OC(C)=O)C(OC(C)=O)C1OC(C)=O (stereo not drawn)
TGI (786-0 renal): > 100 µM
TGI (A498 renal): > 100 µM
TGI (A549 NSCLC): > 100 µM
TGI (ACHN renal): > 100 µM
TGI (CAKI-1 renal): > 100 µM
TGI (CCRF-CEM leukemia): > 100 µM
TGI (COLO 205 colon): > 100 µM
TGI (DLD-1 colon): > 100 µM
TGI (DMS 114 small cell lung): > 100 µM
TGI (DMS 273 small cell lung): > 100 µM
TGI (EKVX NSCLC): > 100 µM
TGI (HCC-2998 colon): > 100 µM
TGI (HCT-116 colon): > 100 µM
TGI (HCT-15 colon): > 100 µM
TGI (HOP-18 NSCLC): > 100 µM
TGI (HOP-62 NSCLC): > 100 µM
TGI (HOP-92 NSCLC): > 100 µM
TGI (HT29 colon): > 100 µM
TGI (IGROV1 ovarian): > 100 µM
TGI (K-562 leukemia): > 100 µM
TGI (KM12 colon): > 100 µM
TGI (KM20L2 colon): > 100 µM
TGI (LOX IMVI melanoma): > 100 µM
TGI (LXFL 529 NSCLC): > 100 µM
TGI (M14 melanoma): > 100 µM
TGI (M19-MEL melanoma): > 100 µM
TGI (MALME-3M melanoma): > 100 µM
TGI (NCI-H226 lung): > 100 µM
TGI (NCI-H23 lung): > 100 µM
TGI (NCI-H460 lung): > 100 µM
TGI (NCI-H522 lung): > 100 µM
TGI (OVCAR-3 ovarian): > 100 µM
TGI (OVCAR-4 ovarian): > 100 µM
TGI (OVCAR-5 ovarian): > 100 µM
TGI (OVCAR-8 ovarian): > 100 µM
TGI (RPMI-8226 leukemia): > 100 µM
TGI (RXF 393 renal): > 100 µM
TGI (SF-268 CNS): > 100 µM
TGI (SF-295 CNS): > 100 µM
TGI (SK-MEL-2 melanoma): > 100 µM
TGI (SK-MEL-28 melanoma): > 100 µM
TGI (SK-MEL-5 melanoma): > 100 µM
TGI (SK-OV-3 ovarian): > 100 µM
TGI (SN12C renal): > 100 µM
TGI (SNB-19 CNS): > 100 µM
TGI (SNB-75 CNS): > 100 µM
TGI (SR leukemia): > 100 µM
TGI (SW-620 colon): > 100 µM
TGI (TK-10 renal): > 100 µM
TGI (U251 CNS): > 100 µM
TGI (UACC-257 melanoma): > 100 µM
TGI (UACC-62 melanoma): > 100 µM
TGI (UO-31 renal): > 100 µM
TGI (XF 498 CNS): > 100 µM
